According to patent US8349846B2, “Fused pyrimidine derivatives as TRPV3 modulators” (Glenmark Pharmaceuticals, S.A., priority 2008, dated 2013):

Target: T1, Human TRPV3 (Homo sapiens, UniProt Q8NET8)
T1 construct: expressed in transfected cells; host or cells: CHO cells (selected with G-418)
T1 sequence (Q8NET8 1-790): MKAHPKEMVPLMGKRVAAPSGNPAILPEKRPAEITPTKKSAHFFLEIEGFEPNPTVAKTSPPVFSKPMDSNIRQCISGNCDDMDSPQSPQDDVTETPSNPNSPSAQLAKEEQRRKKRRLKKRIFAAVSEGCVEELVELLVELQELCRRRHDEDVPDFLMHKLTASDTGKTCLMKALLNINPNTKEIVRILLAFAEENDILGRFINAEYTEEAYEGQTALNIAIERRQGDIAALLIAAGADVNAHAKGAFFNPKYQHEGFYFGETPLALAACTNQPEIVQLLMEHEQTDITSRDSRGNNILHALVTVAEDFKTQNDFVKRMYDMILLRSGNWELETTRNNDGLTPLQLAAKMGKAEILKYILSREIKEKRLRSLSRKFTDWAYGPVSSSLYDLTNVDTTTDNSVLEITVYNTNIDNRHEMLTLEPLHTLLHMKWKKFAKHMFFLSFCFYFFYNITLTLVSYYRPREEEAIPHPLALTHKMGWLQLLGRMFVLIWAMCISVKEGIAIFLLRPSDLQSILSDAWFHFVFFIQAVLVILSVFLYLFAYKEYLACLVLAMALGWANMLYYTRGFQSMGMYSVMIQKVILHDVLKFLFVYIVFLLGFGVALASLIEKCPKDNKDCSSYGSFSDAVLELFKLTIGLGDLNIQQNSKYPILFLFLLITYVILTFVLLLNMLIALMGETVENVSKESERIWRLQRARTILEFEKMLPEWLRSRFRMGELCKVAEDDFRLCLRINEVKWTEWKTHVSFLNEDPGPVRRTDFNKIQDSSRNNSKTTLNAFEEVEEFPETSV
Assay: Screening for TRPV3 antagonist using the 45Calcium uptake assay (inhibition of 2-APB induced cellular uptake of radioactive calcium)
Type: cell-based
Conditions: Human TRPV3 expressing CHO cells, 2-APB 500 μM; for inhibition at 1 µM / inhibition at 10 µM: CHO; for inhibition at 1 µM: 1.0 μM test compound, read-out: Percentage inhibition at 1.0 μM; for inhibition at 10 µM: 10.0 μM test compound, read-out: Percentage inhibition at 10.0 μM
From the text: The illustrative examples of the present invention are screened for TRPV3 activity according to a modified procedure described in Tóth, A., Kedei, N., Wang, Y. and Blumberg, P. M. Life Sciences (2003), 73, 487-498. The screening of the compounds can be carried out by other methods and procedures known to a person skilled in the art. Such screening methods may be found in (a) Hu, H.-Z. et al. J. Biol. Chem. (2004), 279, 35741-35747; (b) Smith, G. D. et al. Nature (2002), 418, 186-190; (c) Peier, A. M. et al. Science (2002), 296, 2046-2049.
Screening for TRPV3 Antagonist Using the ^45Calcium Uptake Assay:
The inhibition of TRPV3 receptor activation was followed as inhibition of 2-aminoethxydiphenylborate (2-APB) induced cellular uptake of radioactive calcium. Test compounds were dissolved in dimethyl sulfoxide (DMSO) to prepare 20 mM stock solution and then diluted using plain medium with DMEM/F-12 containing 1.8 mM CaCl2 to get desired concentration. Final concentration of DMSO in the reaction was 0.5% (v/v). Human TRPV3 expressing CHO cells were grown in DMEM/F-12 medium with 10% FBS, 1% penicillin-streptomycin solution, 400 μg/ml of G-418. Cells were seeded 24 h prior to the assay in 96 well plates so as to get ˜50,000 cells per well on the day of experiment. Cells were treated with test compounds for 10 minutes followed by addition of 2-APB at a final concentration of 500 μM and 5 μCi/ml ^45Ca^+2 for 4 minutes. Cells were washed and lysed using buffer containing 1% Triton X-100, 0.1% deoxycholate and 0.1% SDS. Radioactivity in the lysate was measured in Packardt Top count after addition of liquid scintillant. Concentration response curves were plotted as a % of maximal response obtained in the absence of test antagonist. IC50 value was calculated from concentration response curve by nonlinear regression analysis using GraphPad PRISM software.
Percentage inhibition at concentrations of 1.0 μM and 10.0 μM are given in the table along with IC50 (nM) values for selected examples.

Compound | inhibition at 1 µM [%] | inhibition at 10 µM [%] | IC50 [nM]
O=c1c(-c2ccccc2)c(/C=C/c2ccc(Cl)cc2)nc2ccccn12 [Example 1, 2-[(E)-2-(4-Chlorophenyl)vinyl]-3-phenyl-4H-pyrido[1,2-a]pyrimidin-4-one] | 0.5 | 19.4 | –
COc1cccc(/C=C/c2nc3c(C)cccn3c(=O)c2-c2ccc(C(F)(F)F)cc2)c1OC1CCCC1 [Example 40, 2-{(E)-2-[(2-Cyclopentyloxy-3-methoxy)phenyl]vinyl}-9-methyl-3-(4-trifluoromethyl)phenyl-4H-pyrido[1,2-a]pyrimidin-4-one] | 23.1 | 18.7 | –
COc1cccc(/C=C/c2nc3ccccn3c(=O)c2-c2ccc(C(=O)O)cc2)c1OC1CCCC1 [Example 29, 4-{4-Oxo-2-[(E)-2-(2-cyclopentyloxy-3-methoxy)phenylvinyl]-4H-pyrido[1,2-a]pyrimidin-3-yl}benzoic acid] | 0 | 0.2 | –
O=c1c(-c2ccc(C(F)(F)F)cc2)c(/C=C/c2cccs2)nc2ccccn12 [Example 3, 2-[(E)-2-(2-Thienyl)vinyl]-3-[4-(trifluoromethyl)phenyl]-4H-pyrido[1,2-a]pyrimidin-4-one] | 14.4 | 77.9 | 1000 to 2500
COc1cccc(/C=C/c2nc3ccccn3c(=O)c2-c2ccc(C(F)(F)F)cc2)c1OC1CCCC1 [Example 23, 2-{(E)-2-[2-(Cyclopentyloxy)-3-methoxyphenyl]vinyl}-3-(4-trifluoromethyl)phenyl-4H-pyrido[1,2-a]pyrimidin-4-one] | 62.8 | 86.7 | 500 to 1000
CCCOc1c(/C=C/c2nc3ccccn3c(=O)c2-c2ccc(C#N)cc2)cccc1OC [Example 7] | 77.9 | 98.9 | –
COc1cccc(/C=C/c2nc3ccccn3c(=O)c2-c2cccc(NC(C)=O)c2)c1OC1CCCC1 [Example 31, N-(3-{2-[(E)-2-(2-Cyclopentyloxy-3-methoxy)phenylvinyl]-4-oxo-4H-pyrido[1,2-a]pyrimidin-3-yl}phenyl)acetamide] | 50.4 | 96.2 | –
CCCOc1c(/C=C/c2nc3ccccn3c(=O)c2-c2ccc(C(F)(F)F)cc2)cccc1OC [Example 6] | 71.5 | 67.5 | –
COc1cccc(/C=C/c2nc3ccccn3c(=O)c2-c2ccc(F)nc2)c1OC1CCCC1 [Example 36, 2-{(E)-2-[2-(Cyclopentyloxy-3-methoxy)phenyl]vinyl}-3-(6-fluoro)pyridin-3-yl-4H-pyrido[1,2-a]pyrimidin-4-one] | 42.2 | 82.4 | 500 to 1000
COc1cccc(/C=C/c2nc3ccccn3c(=O)c2-c2ccc(C(F)(F)F)cc2)c1OCC1CC1 [Example 17] | 83.3 | 95.3 | < 500
CCCCOc1c(/C=C/c2nc3ccccn3c(=O)c2-c2ccc(C(F)(F)F)cc2)cccc1OC [Example 8] | 76.3 | 89.7 | –
COc1cccc(/C=C/c2nc3ccc(Cl)cn3c(=O)c2-c2ccc(C#N)cc2)c1OCC1CC1 [Example 42] | 0 | 96.8 | –
COc1cccc(/C=C/c2nc3ccccn3c(=O)c2-c2ccncc2)c1OC1CCCC1 [Example 35, 2-{(E)-2-[2-(Cyclopentyloxy)-3-methoxyphenyl]vinyl}-3-pyridin-4-yl-4H-pyrido[1,2-a]-pyrimidin-4-one] | 18.4 | 63.3 | –
CCCCOc1c(/C=C/c2nc3ccccn3c(=O)c2-c2ccc(OC(F)(F)F)cc2)cccc1OC [Example 9, 2-[(E)-2-[2-Butoxy-3-methoxyphenyl)vinyl]-3-[4-(trifluoromethoxy)phenyl]-4H-pyrido-[1,2-a]pyrimidin-4-one] | 74.6 | 89 | 500 to 1000
COc1cccc(/C=C/c2nc3ccccn3c(=O)c2-c2ccc(OC(F)(F)F)cc2)c1OCC1CC1 [Example 18] | 79.5 | 93.5 | < 500
COc1cccc(-c2c(/C=C/c3cccc(OC)c3OC3CCCC3)nc3ccccn3c2=O)c1 [Example 26, 2-{(E)-2-[(2-Cyclopentyloxy-3-methoxy)phenyl]vinyl}-3-(3-methoxy)phenyl-4H-pyrido-[1,2-a]pyrimidin-4-one] | 48 | 69.3 | –
CCCCOc1c(/C=C/c2nc3ccccn3c(=O)c2-c2ccc(C#N)cc2)cccc1OC [Example 10] | 82.8 | 100 | –
COc1cccc(/C=C/c2nc3ccccn3c(=O)c2-c2ccc3c(c2)OCCO3)c1OC1CCCC1 [Example 38, 2-[(E)-2-(2-Cyclopentyloxy-3-methoxyphenyl)vinyl]-3-(2,3-dihydro-1,4-benzodioxin-6-yl)-4H-pyrido[1,2-a]pyrimidin-4-one] | 55.5 | 83.8 | < 500
COc1cccc(/C=C/c2nc3ccccn3c(=O)c2-c2cccc(O)c2)c1OC1CCCC1 [Example 25, 2-{(E)-2-[2-(Cyclopentyloxy-3-methoxy)phenyl]vinyl}-3-(3-hydroxy)phenyl-4H-pyrido-[1,2-a]-pyrimidin-4-one] | 20.7 | 93.1 | 1000 to 2500
CCCCCCOc1c(/C=C/c2nc3ccccn3c(=O)c2-c2ccc(C#N)cc2)cccc1OC [Example 14] | 85.1 | 92.3 | < 500
COc1cccc(/C=C/c2nc3ccccn3c(=O)c2-c2ccccc2)c1OCC1CC1 [Example 16, 2-{(E)-2-[2-(Cyclopropylmethoxy)-3-methoxyphenyl]vinyl}-3-phenyl-4H-pyrido[1,2-a]-pyrimidin-4-one] | 33.8 | 79.8 | –
COc1cccc(/C=C/c2nc3ccccn3c(=O)c2-c2ccc3ncccc3c2)c1OC1CCCC1 [Example 39, 2-[(E)-2-(2-Cyclopentyloxy-3-methoxy)phenylvinyl]-3-quinolin-6-yl-4H-pyrido[1,2-a]pyrimidin-4-one] | 84.6 | 96.1 | < 500
O=c1c(-c2ccc(C(F)(F)F)cc2)c(/C=C/c2cccc3c2OCO3)nc2ccccn12 [Example 4, 2-[(E)-2-(1,3-Benzodioxol-4-yl)vinyl]-3-[4-(trifluoromethyl)phenyl]-4H-pyrido[1,2-a]pyrimidin-4-one] | 25.3 | 74 | –
CCCCCCOc1c(/C=C/c2nc3ccccn3c(=O)c2-c2ccc(C(F)(F)F)cc2)cccc1OC [Example 13] | 58 | 77.3 | –
COc1cccc(/C=C/c2nc3ccccn3c(=O)c2-c2ccc(C(C)=O)cc2)c1OC1CCCC1 [Example 33, 3-(4-Acetylphenyl)-2-[(E)-2-(2-cyclopentyloxy-3-methoxy)phenylvinyl]-4H-pyrido[1,2-a]pyrimidin-4-one] | 78 | 94.3 | < 500
COc1cccc(/C=C/c2nc3c(OC)cccn3c(=O)c2-c2ccc(C#N)cc2)c1OC1CCCC1 [Example 41, 4-{2-[(E)-2-(2-Cyclopentyloxy-3-methoxyphenyl)vinyl]-9-methoxy-4-oxo-4H-pyrido[1,2-a]pyrimidin-3-yl}benzonitrile] | 54.8 | 87.6 | –
